Experimental data: patent publication US10751373B2, “PD-L1 expressing hematopoietic stem cells and uses” (The Children's Medical Center Corporation, priority 2015, dated 2020)
Like-named read-outs stand apart in the source and are kept apart here.

Tests used:
[1] = system: CD34^+ cells
Description: To assess whether mobilization alters expression of PD-L1 on HSCs we studied the immune phenotype of HSCs before and after mobilization with anti-CXCR4 in 5 healthy subjects and 8 individuals with T1D.
Blood samples were obtained from new onset diabetic individuals (New-onset T1D), long-standing diabetic individuals (T1D) and healthy individuals (CTRL) in accordance with The San Raffaele Scientific Research Institute under an Institutional Review Board committee approval. Peripheral blood mononuclear cells (PBMC) fractions were isolated by Ficoll density gradient centrifugation for cell culturing experiments. Additional blood samples were obtained from T1D subjects and CTRL at baseline before treatment and 6 hours after treatment with CXCR4-antagonist (Mozobil; Sanofi) at the dose of 0.24 mg/kg body weight in accordance with the Institution Review Board Committee of Padova (2996P) and was performed in accordance with the Declaration of Helsinki (Clinical trial registered on clinicaltrials.gov (NCT02056210)). Patients with Type 1 Diabetes aged 18-65 years were recruited among those referred to the diabetes outpatient clinic of the University Hospital of Padova. Individuals without diabetes aged 18-65 years were recruited from those referred to the same outpatient clinic for screening of other metabolic diseases. All provided written informed consent. […] Women with childbearing potential could participate in the study if on oral contraception, and a negative pregnancy test was required before study entry. […] All medications for the treatment of diabetes and for other medical conditions were allowed during the study.
To assess PD-L1, PD-L2 and PD-1 expression on human HSCs, fresh blood collected from healthy individuals, T1D and new-onset T1D individuals was stained with PE-Cy5.5 anti-human CD34, PE anti-human PD-L1 or PD-L2 or PD-1 (BD Biosciences). […]

[2] = system: Lin^−c-Kit^+Sca-1^+ cells
Description: (§1) We evaluated the characteristics of CXCR4 antagonist-mobilized HSCs by FACS analysis. Lin^−c-Kit^+Sca-1^+ cells were sorted from islet-transplanted or naïve CXCR4 antagonist-treated mice after 7 and 14 days of treatment. […] To evaluate the immunoregulatory role of PD-L1 in murine HSCs, we investigated the effect of mobilized HSCs from WT and PD-L1 KO mice on the alloimmune response in vitro. A standard MLR assay was performed in which HSCs (from WT B6 or PD-L1 KO mice) were syngeneic to responder cells (CD4^+ cells from B6) but allogeneic to bone marrow-derived DCs (from BALB/c). […] The percentage of peripheral PD-L1^+ KLS in 10-week-old NOD and B6 mice was evaluated by FACS. […] We performed a pilot study to assess the feasibility of generation of PD-L1^+ HSCs in vitro by pharmacologic approach. KLS cells were isolated from splenocytes of B6 and NOD mice by magnetic beads and cultured with standard stem cell medium plus PGE2 (2 μl, 10 μM).

[3] = system: KLS cells; assay: In vitro culture of murine KLS cells with PGE2, PD-L1+ HSCs by FACS; assay type: cell-based; settings: KLS of B6 and NOD mice; PGE2 (2 μl, 10 μM); after 8 days
Description: as §1

[4] = system: CD34^+ cells; assay: Ex vivo culture of human CD34+ cells with PGE2, PD-L1 expression by FACS; assay type: cell-based
Description: CD34^+ cells were isolated from patients (20 ml of blood) using magnetic beads and ˜1×10^6 cells were plated in a U-bottom 96-well plate with 200 μl of the indicated medium. STFIA medium was defined as serum-free medium supplemented with 10 μg/ml heparin, 10 ng/ml human SCF, 20 ng/ml human TPO, 10 ng/ml human FGF-1, 100 ng/ml IGFBP2, and 500 ng/ml Angptl3. PGE2 was added the culture at 0 h, 24 h, 72 h and 6 days. An aliquot of 2 μl of diluted PGE2 at a concentration of 10 μM was added to the 200 μl of each well in the 96-well plate. The approximate final concentration of PGE2 in each well is 0.1 μM. Therefore, the cells are exposed to ˜0.1 μM of PGE2. The periodic addition of PGE2 at 24 h, 72 h and 6 days serves to maintain the PGE2 in the culture media. Cells were cultured for 7 days at 37° C. in 5% CO2 and the normal level of O2.
Alternatively, cells are cultured in the same conditions for 48 h in the absence of PGE2, after which and PGE2 is added and then later at 24 h after the initial additional. PGE2 is added to the same approximate final concentration of PGE2 of 0.1 μM. We typically observed a ˜10-fold increase of CD34^+PD-L1^+ of cells after 8 days of culture when compared with a cell culture with the same medium cultured for the same time in the same conditions with cells obtained from the same subjects but without addition of PGE2.
Human – human HSCs were cultured using StemSpan supplemented with human stem cell growth factors as previously reported (22). Briefly, CD34^+ cells were plated at 5×10^5 cells/ml in supplemented StemSpan on a 96-well plate, at 200 μl/well for 7 days. HSCs were pulsed with PGE2 as described in murine experiments. PD-L1^+ HSCs were quantified by FACS analysis at different timepoints and at the end of the procedure.

[5] = system: CD34+ cells; assay: HSC mobilization with hrG-CSF (trial NCT01102699); assay type: in vivo, human; settings: 5 μg/kg
[6] = after 7 and 14 days of treatment

Molecule: c1cc(CN2CCCNCCNCCCNCC2)ccc1CN1CCCNCCNCCCNCC1 [CXCR4 antagonist, plerixafor]
- percentage of CD34^+ PD-L1^+ cells after mobilization ([1]; 5 controls and 8 T1D individuals): decrease
- PD-L1 expression on CD34^+ cells after mobilization ([1]; T1D individuals (n=8), before 1.5±0.8): 4.7±1.5
- PD-L1 expression on CD34^+ cells after mobilization ([1]; healthy subjects (n=5), before 0.6±0.2): 6.2±0.6
- PD-L1^+ HSCs in bone marrow ([2]; B6 islet-transplanted mice, 6 h after initiation of treatment): did not increase
- CXCR4 expressed by extracted HSCs [2, 6]: 38.4±4.2%
- PD-L1 expressed by mobilized HSCs [2, 6]: 58.0±7.1%

Molecule: CCCCC[C@H](O)/C=C/[C@H]1[C@H](O)CC(=O)[C@@H]1C/C=C\CCCC(=O)O [PGE2, prostaglandin E2]
- increase in the PD-L1^+ HSCs [3]: ~30 % fold
- increase in the percentage of PD-L1^+ HSCs ([4]; CD34+ cells of T1D individuals (n=10), after 7 days): ~8 times fold
- increased expression of PD-L1 as compared to baseline ([4]; PGE2 culture protocol): at least 5 fold
- increase of CD34^+PD-L1^+ of cells ([4]; PGE2 ~0.1 μM, after 8 days of culture vs same culture without PGE2): ~10 fold

B1: hrG-CSF: granulocyte colony stimulating factor (protein, UniProt P09919 31-207, looked up)
Granulocyte …: TPLGPASSLPQSFLLKCLEQVRKIQGDGAALQEKLVSECATYKLCHPEELVLLGHSLGIPWAPLSSCPSQALQLAGCLSQLHSGLFLYQGLLQALEGISPELGPTLDTLQLDVADFATTIWQQMEELGMAPALQPTQGAMPAFASAFQRRAGGVLVASHLQSFLEVSYRVLRHLAQP
- CD34+ cell mobilization ([5]; T1D individuals): impaired mobilization
- CD34+ cell mobilization ([5]; healthy controls): significantly increased
